Reference: paper PMC9544596 (Journal of Clinical Pharmacology, 2022)

Tests used:
Enterococcus spp. = experiment: Vancomycin MIC of cultured clinical isolates; type: cell-based
[1] = Population pharmacokinetic model of vancomycin

**Q.** With `CN[C@H](CC(C)C)C(=O)N[C@H]1C(=O)N[C@@H](CC(N)=O)C(=O)N[C@H]2C(=O)N[C@H]3C(=O)N[C@H](C(=O)N[C@H](C(=O)O)c4cc(O)cc(O)c4-c4cc3ccc4O)[C@H](O)c3ccc(c(Cl)c3)Oc3cc2cc(c3O[C@@H]2O[C@H](CO)[C@@H](O)[C@H](O)[C@H]2O[C@H]2C[C@](C)(N)[C@H](O)[C@H](C)O2)Oc2ccc(cc2Cl)[C@H]1O` [vancomycin] as the compound, how does the MIC50 (Enterococcus spp.; Enterococcus, read-out: MIC50 (min-max)) read?
**A.** Its MIC50 is 1 µg/mL.

**Q.** What about the “MIC50 (min-max)” value (Enterococcus spp.; patients without shock, 6 isolates) of the same compound?
**A.** Its value is 1 µg/mL.

**Q.** What about the “MIC50 (min-max)” value (Enterococcus spp.; septic shock patients, 5 isolates) of the same compound?
**A.** The value was 1 µg/mL.

**Q.** And the “CL, bootstrap of final model estimate” value ([1]; 1000 bootstrap replicates)?
**A.** Its value is 1.23 L/h.

**Q.** And the “Vd, bootstrap of final model estimate” value ([1]; 1000 bootstrap replicates)?
**A.** Its value is 66.51 L.

**Q.** And the “θ1, bootstrap of final model estimate” value ([1]; 1000 bootstrap replicates)?
**A.** Its value is 1.00.

**Q.** What about the “Vd, final model estimate” value ([1]; Thai GFR not indexed to BSA final model) of the same compound?
**A.** The value was 67.46 L.
